The text below walks through data of ChEMBL document CHEMBL6103624, “Design, Synthesis, and Biological Evaluation of Marchantin C-NO Donor Hybrids for Overcoming Pgp-Mediated Drug Resistance by Targeting Lysosome” (J Med Chem, 2025).

Series [1] in a line: Selectivity index, ratio of IC50 for human MCF-10A to IC50 for human MDA-MB-231 cells. The note with it: MCF-10A cells and MDA-MB-231 cells, read-out: Ratio IC50. In kind it is toxicity.
Another series relates to HepG2. The series can be described thus: Antiproliferative activity against human HepG2 cells assessed as inhibition of cell growth incubated for 48 hrs by MTT assay. The note with it: HepG2, 48 h. Type of series: functional, cell-based. On the technique in general: Formazan colour is commonly taken as a measure of viable cells.
Series [2] is described as follows: Selectivity index, ratio of IC50 for antiproliferative activity against human MCF7 cells assessed as inhibition of cell growth to IC50 for antiproliferative activity against human MCF7ADR cells assessed as inhibition of cell growth. In kind it is functional.
The subject of series [3] is NCI/ADR-RES. The series can be described thus: Induction of NO release in human MCF7ADR cells at 100 uM by Griess reagent assay. In kind it is functional, cell-based. The note with it: time <= 10.0 hrs.
The test system of a further series is A549. The series can be described thus: Antiproliferative activity against human A549 cells assessed as inhibition of cell growth incubated for 48 hrs by MTT assay. The note with it: A549, 48 h. In kind it is functional, cell-based.
The next series relates to MCF7. As to the kind of experiment: Antiproliferative activity against human MCF7 cells assessed as inhibition of cell growth incubated for 48 hrs by MTT assay. In kind it is functional, cell-based. The note with it: MCF7, 48 h.
For series [4], the system named is NCI/ADR-RES. As to the kind of experiment: Antiproliferative activity against human MCF7ADR cells assessed as inhibition of cell growth incubated for 48 hrs by MTT assay. In kind it is functional, cell-based.
For another series, the system named is PC-3. As to the kind of experiment: Antiproliferative activity against human PC-3 cells assessed as inhibition of cell growth incubated for 48 hrs by MTT assay. The note with it: PC-3, 48 h. Type of series: functional, cell-based.
Series [5] in a line: Cytotoxicity against human BEAS-2B cells assessed as inhibition of cell growth incubated for 48 hrs by MTT assay. Type of series: toxicity, cell-based.
Series [6] is described as follows: Cytotoxicity against human MCF-10A cells assessed as inhibition of cell growth incubated for 48 hrs by MTT assay. In kind it is toxicity, cell-based.
A further series deals with A549/TR. As to the kind of experiment: Antiproliferative activity against human A549/Taxol cells assessed as inhibition of cell growth incubated for 48 hrs by MTT assay. Type of series: functional, cell-based.
Series [7] in a line: Selectivity index, ratio of IC50 for antiproliferative activity against human A549 cells assessed as inhibition of cell growth to IC50 for antiproliferative activity against human A549/Taxol cells assessed as inhibition of cell growth. In kind it is functional.

As usually defined, the IC50 is the concentration needed to halve the response being measured.

`CCN(CC)c1ccc2cc(C(=O)OCCCCCOc3cc4ccc(=O)oc4cc3OCCCCCCOc3no[n+]([O-])c3S(=O)(=O)c3ccccc3)c(=O)oc2c1`: the selectivity ratio in [1] is > 6250.

Turning to `O=[N+]([O-])c1ccc(O/N=[N+](\[O-])N2CCN(Cc3ccc4c(c3O)Oc3cccc(c3)CCc3ccc(O)c(c3)Oc3ccc(cc3)CC4)CC2)c([N+](=O)[O-])c1`, the IC50 in the series on HepG2 is > 20 µM; with A549 it was > 40 µM; with MCF7, > 20 µM; in the series with NCI/ADR-RES [4] it was > 3 µM; in the series on PC-3, > 20 µM. Also, the “Ratio IC50” value in [2] is reported as <7. The Activity entry with NCI/ADR-RES [3] was “Time-dependent-effect”.

`O=S(=O)(c1ccccc1)c1c(OCCCCOc2cccc3c2Oc2cccc(c2)CCc2ccc(O)c(c2)Oc2ccc(cc2)CC3)no[n+]1[O-]`: the IC50 is > 20 µM in the series with HepG2; 5.92 µM with A549/TR; > 40 µM in the series with A549; > 20 µM with MCF7; 0.098 µM in the series on NCI/ADR-RES [4]; > 20 µM in the series with PC-3. Besides, the “Ratio IC50” value in series [2] was >204; in series [7], >7. Besides, the IC50 at 48 h in series [5] was > 20 µM; in [6] it was 8.32 µM.
